Measurements as given in the METLIN SMRT retention time set (Domingo-Almenara et al. 2019).

Assay: gradient 5% acetonitrile 3 min, to 50% in 2 min, to 85% in 15 min, held 3 min, 100 µL/min
Conditions: column: Zorbax Extend-C18 2.1 x 50 mm; eluents: water / acetonitrile, 0.1% formic acid
Outline: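 The system's dead and dwell volumes were 40 μL and 900 μL, with a Zorbax Extend-C18 column (2.1 × 50 mm, 1.8 μm) run at 100 μL/min in water and acetonitrile containing 0.1% formic acid each. Pure standards were analyzed in mixtures of ~100 molecules by HPLC–quadrupole time-of-flight mass spectrometry in positive and negative ionization mode. Retention time was assigned from computationally picked, manually inspected adduct peaks.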

Row | RP-LC retention time [s] | SMILES
1 | 596 | CCN1CCN(CCNC(=O)C2CCCN(C(=O)c3[nH]c(C)c(C(=O)OC(C)C)c3C)C2)CC1 (stereo not given)
2 | 1140 | Cc1ccc(NC(=O)Cn2nc(N3CCCC(C)C3)c3ccccc3c2=O)cc1 (stereo not given)
3 | 624 | O=C1NCC(=O)N2CC3(CCN(C(=O)C4CCCCC4)CC3)CC12 (stereo not given)
4 | 669 | O=C(CSc1ccc(-c2ccccn2)nn1)N1CCCCC1
5 | 842 | CCOc1ccc(C(=O)N2CCC3(CC2)C(=O)N(C)c2ccccc23)cc1OCC
6 | 815 | Cc1ccc(N2C=NS(=O)(=O)c3cccnc32)cc1F
7 | 711 | Cc1ccc(-c2ccc(=O)n(CCc3nc(-c4ccc5c(c4)OCO5)no3)n2)cc1
8 | 624 | Cn1nc2n(c1=O)CCN(C(=O)C1CC=CCC1)CC2 (stereo not given)
9 | 778 | CCc1noc(-c2cnc3nc(C)ccc3c2Nc2cccc(OC)c2)n1
10 | 685 | COc1ccc(-c2cc(N3CCN(C(=O)Nc4cc(OC)ccc4OC)CC3)ncn2)cc1
11 | 621 | Cc1ccc(C)c(S(=O)(=O)Nc2cnc(N3CCNCC3)c(C(=O)NC3CCCC3)c2)c1
12 | 922 | Cc1ccc(S(=O)(=O)NCc2c(-c3ccccc3)nc3sc(C)nn23)c(C)c1
13 | 646 | O=C(NCCc1nc2cccnc2n1-c1ccccc1)c1ccoc1
14 | 580 | CC(C)CN1CCN(C(=O)C2CC(=O)N(CCc3ccccc3)C2)CC1 (stereo not given)
15 | 991 | COCC(=O)N(CC(=O)N1CCc2sccc2C1COc1ccc(Cl)cc1)C(C)(C)C (stereo not given)
16 | 963 | CC(C)c1ccc(-c2ccnc3c(C(=O)N4CCN(c5ncccn5)CC4)cnn23)cc1
17 | 1140 | O=c1c2cc(-c3cccc4ccccc34)nn2ccn1Cc1nc(-c2ccccc2)no1
18 | 699 | Clc1ccc(Cl)c(-c2ccc(CNCC3CCCO3)o2)c1 (stereo not given)
19 | 723 | Cc1oc(CNC(=O)Nc2ccc(Cl)cc2F)nc1C(=O)N1CCCC1
20 | 759 | O=C([C@@H]1C[C@H](F)CN1S(=O)(=O)c1ccc2c(c1)OCCO2)N1CCCCC1
21 | 748 | CCCNC(=O)C1CCCN(c2ccc(SCC(=O)Nc3ccc(C)c(Cl)c3)nn2)C1 (stereo not given)
22 | 771 | CC1=C(c2ccc(C)c(C)c2)S(=O)(=O)N=C1N1CCCN(C(=O)c2ccccn2)CC1

Row | RP-LC retention time [s] | SMILES
23 | 898 | Cc1ccc(CNC(=O)C2(C)CN(S(C)(=O)=O)CC(=O)N2c2cc(C)ccc2C)cc1 (stereo not given)
24 | 741 | O=c1n(CC2CC2)nc2n1CCN(S(=O)(=O)Cc1ccccc1)CC2
25 | 711 | Cc1ccc(C)c(NC(=O)N2CCC(c3nc(C(=O)N(C)C)c(C)o3)CC2)c1
26 | 714 | COc1ccc(C(=O)N2CCC3(C2)C(=O)N(C)c2ccccc23)cc1OC (stereo not given)
27 | 678 | O=C(CSc1ccc(N2CCCC(C(=O)NC3CC3)C2)nn1)NCc1cccc(C(F)(F)F)c1 (stereo not given)
28 | 925 | Cc1ccc(NC(=O)NCCC2CCN(S(=O)(=O)c3ccc(F)cc3)CC2)cc1
29 | 756 | COc1ccc(NC(=O)C2CCN(c3cnc4nc(C)c(C)nc4c3)CC2)cc1Cl
30 | 828 | Cc1ccc(CCNC(=O)c2cc3n(n2)CC(C)(C(=O)NCc2ccc(F)cc2)N(C)C3=O)cc1 (stereo not given)
31 | 767 | CC(C(=O)NCc1ccco1)C1CCN(C(=O)c2cc3ccccc3[nH]2)CC1 (stereo not given)
32 | 597 | CCOC(=O)c1[nH]c(C)c(CCC(=O)N2CCC(C(=O)NCc3cccnc3)CC2)c1C
33 | 604 | Cc1cc(C)cc(Nc2c(C(=O)N3CCOCC3)cnc3nc(C)ccc23)c1
34 | 1130 | CCOc1ccc(NC(=O)Cn2nc(N3CCC(C)CC3)c3ccccc3c2=O)cc1
35 | 1300 | COc1ccc(-c2ccnn2-c2ccc(SCc3cccc(F)c3)nn2)cc1
36 | 940 | CC1CCCN(S(=O)(=O)c2ccc(-c3nnc(C4CC4)o3)o2)C1 (stereo not given)
37 | 631 | O=C(Nc1cccc(-c2ccn[nH]2)c1)c1ccco1
38 | 1000 | CCOC(=O)Cc1ccc(NC(=O)N2CCC3(CC2)Nc2cc(F)ccc2-n2cccc23)cc1
39 | 760 | CCCC(=O)Nc1ccc2c(c1)CN(C(=O)c1ccc(C)cc1C)C(C(=O)N(C)C)C2 (stereo not given)
40 | 675 | COc1ccc(CC(=O)Nc2cc(-c3cn4cccnc4n3)ccc2OC)cc1
41 | 644 | CC(=O)N=c1sc(S(N)(=O)=O)nn1C
42 | 947 | CCOC(=O)c1cc(S(=O)(=O)N2CCCC2C(=O)Nc2nc3ccc(OC)cc3s2)cn1C (stereo not given)
43 | 587 | CC(C)NC(=O)c1cc(N(C)C)nc2ccccc12
44 | 680 | Cc1nnc(N2CCCC(C(=O)NCc3ccco3)C2)c2nn(-c3ccccc3)c(C)c12 (stereo not given)

Row | RP-LC retention time [s] | SMILES
45 | 716 | Cc1ccc(Cn2c(CN3CCC(C(=O)NC4CC4)CC3)cc3ccccc32)cc1
46 | 715 | CCN1CCN(c2ccc(-c3nc(-c4ccc(C)cc4)no3)cn2)CC1
47 | 894 | Cc1nc(-c2csc(S(=O)(=O)N3CCCC(C(=O)Nc4ccc5c(c4)OCO5)C3)c2)no1 (stereo not given)
48 | 795 | CN(C)c1cc(N2CCCC(NC(=O)Cc3ccccc3)C2)ncn1 (stereo not given)
49 | 783 | CN(C)C(=O)c1csc(S(=O)(=O)N2CCC(C(=O)NC3CCCCCC3)CC2)c1
50 | 939 | COc1cc2c(cc1CNC(=O)c1ccc(Br)cc1)OCCCO2
51 | 659 | CC(C)n1cnnc1CC1CCN(S(=O)(=O)Cc2ccccc2)C1 (stereo not given)
52 | 1150 | CCc1cccc(NC(=O)c2cc(CC)n3nccc3n2)c1
53 | 552 | CCC(CO)NCC(O)COCc1ccc(Cl)cc1 (stereo not given)
54 | 608 | Cn1cc(CCN2CCN(S(=O)(=O)c3ccccc3F)CC2)c2cccnc21
55 | 747 | N#Cc1ccc(S(=O)(=O)N2CCOCCNC(=O)[C@H]3CCCC[C@H]32)cc1
56 | 684 | CCOc1ccccc1C(=O)NCc1nc(C)no1
57 | 925 | O=C(Nc1cc(-c2ccccc2)[nH]n1)c1ccc(Cl)cc1
58 | 921 | N#Cc1ccc(C(=O)N2CCCC2c2nc(-c3ccc(F)cc3F)no2)cc1 (stereo not given)
59 | 618 | O=C(NCc1ccncc1)c1cc2cc(Cl)ccc2[nH]1
60 | 1030 | Cc1ccc(NC(=O)C2CCCN(c3nc4ccsc4c(=O)n3Cc3ccc(F)cc3)C2)cc1 (stereo not given)
61 | 623 | O=C(COc1ccc(-c2cnc3ccccc3n2)cc1)NCCN1CCCC1
62 | 940 | Cc1ccc(-n2nc(CO)c(C(=O)NCc3ccc4c(c3)OCO4)n2)cc1
63 | 691 | CCC1(O)CCC12CCN(C(=O)c1ccoc1)CC2 (stereo not given)
64 | 822 | COc1cc(NC(=O)CN2C(=O)CCn3nc(-c4cn(C)c5ccccc45)cc32)cc(OC)c1
65 | 772 | O=C(Nc1ccccc1F)C1CCCN(S(=O)(=O)c2c[nH]c(C(=O)N3CCCC3)c2)C1 (stereo not given)
66 | 1130 | CCN1CCCn2cc(S(=O)(=O)Nc3ccc(C)cc3)cc2C1=O

Row | RP-LC retention time [s] | SMILES
67 | 562 | COc1ncccc1CNC(=O)c1ccc(C)nc1
68 | 656 | Cn1nc2n(c1=O)CCN(C(=O)CC1=CCCCC1)CC2
69 | 593 | COCCN1C(=O)CS(=O)C12CCN(C(=O)c1ccsc1)CC2 (stereo not given)
70 | 593 | Cc1ccc(C(=O)N2C[C@@H](C)[C@H](c3nc(C)no3)C2)cn1
71 | 1420 | Cc1sc(-c2nc(C(C)C)cs2)cc1S(=O)(=O)N1CCN(c2ccccc2)CC1
72 | 695 | Cc1ccc(C(=O)Nc2ccc3c(N4CCCCC4)ncnc3c2)s1
73 | 854 | CCC(C)Sc1nnc(NC(=O)C2CCN(C(=O)c3ccccc3)CC2)s1 (stereo not given)
74 | 805 | CC(C)n1nnc2cc(C(=O)N(C)CC(=O)Nc3cccc(Br)c3)ccc21
75 | 705 | CCCc1c(C(=O)O)nnn1-c1ccccc1F
76 | 749 | O=C(NCc1ccc(F)cc1)C1CCCN(c2nnc3ccc(Cl)cn23)C1 (stereo not given)
77 | 955 | Cc1ccc(C)c(NC(=O)CN2C(=O)C3CCCCN3c3ccc(S(=O)(=O)N(C)C)cc32)c1 (stereo not given)
78 | 925 | CCOCCCN1C(=O)CN(C2CCCCCC2)C(=O)C1c1ccc(OCC)c(OC)c1 (stereo not given)
79 | 633 | COc1ccc(-c2nc3ccccn3c2Nc2ccc3c(c2)OCO3)cc1
80 | 904 | Cc1ccsc1C(=O)NCC12CCCC=C1N(CC1CC1)C(=O)CC2 (stereo not given)
81 | 974 | Cc1cc(=O)n(CC(=O)Nc2ccc3c(c2)OCO3)c(-c2ccc(F)cc2)n1
82 | 691 | CCN(CC)S(=O)(=O)c1ccc2c(c1)cc(C(=O)NCCCN1CCCC(C)C1)n2C (stereo not given)
83 | 1030 | O=c1oc(-c2ccccc2)c(-c2ccccc2)c2ccccc12
84 | 681 | COc1ccc(-c2ccnc3ncnn23)c(F)c1
85 | 585 | Cc1ccc(C(=O)N2CCC(n3c(C)cnc3C)C2)s1 (stereo not given)
86 | 1110 | CCOc1ccc(N2C(=O)C3N=NN(Cc4nc(-c5ccc(C)c(C)c5)no4)C3C2=O)cc1 (stereo not given)
87 | 766 | Cn1cnc2c(C(=O)N3CCN(c4ncccn4)CC3)nn(-c3ccc(Cl)cc3)c2c1=O
88 | 731 | O=C(NCc1ccc(Cl)cc1)C1CCCN(c2cnc3nccnc3c2)C1 (stereo not given)

Row | SMILES | RP-LC retention time [s]
89 | CCn1cc(C(=O)Nc2ccc(C)c(C)c2)c2cccnc21 | 937
90 | CC(CC(C#N)(c1ccccc1)c1ccccc1)N1CCCCC1 (stereo not given) | 780
